TGI and GI50 data for 8 compounds are collected here from PubChem BioAssay (NCI).

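Step 1: Grow cells in 96-well plates. Step 2: Expose to compound for 48 hours at 5 concentrations. Step 3: Interpolate endpoints linearly; if unreached, use highest concentration. GI50 is the concentration that inhibits growth by half. TGI is the concentration that stops growth completely.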

Among the test systems are MDA-MB-435; M14 melanoma; MOLT-4 leukemia; T-47D breast; LOX IMVI melanoma; KM12 colon; HL-60(TB) leukemia; HT29 colon; SK-MEL-2 melanoma; PC-3 prostate.
Holding throughout (assay): growth of human tumour cells (NCI), 48 h

`O=C(O)c1cccc(N=Nc2c(S(=O)(=O)O)ccc3c2C(=O)c2ccccc2C3=O)c1O`: the TGI in the test on MDA-MB-435, in the test on M14 melanoma, in the test with MOLT-4 leukemia, in the test on T-47D breast, in the test on LOX IMVI melanoma and with KM12 colon was more than 100 µM in each case. For the same compound, the TGI in the test on HL-60(TB) leukemia, with HT29 colon, with SK-MEL-2 melanoma and with PC-3 prostate was more than 100 µM each time.

`C[C@@H](CO)[C@@H]1CCC=C2CC[C@]3(C)[C@H](CC[C@@H]4[C@@]5(C)CCCNC(C)(C)[C@@H]5CC[C@]43C)[C@H]21`: the GI50 is 1.76 µM in the test with MDA-MB-435; 2.31 µM in the test on M14 melanoma; 2.5 µM in the test on MOLT-4 leukemia; 2.38 µM in the test with T-47D breast; 1.74 µM with LOX IMVI melanoma; 1.97 µM in the test with KM12 colon. The GI50 was 1.98 µM with HL-60(TB) leukemia, 1.85 µM in the test with HT29 colon, 2.08 µM with SK-MEL-2 melanoma and 2.97 µM with PC-3 prostate. In addition, the TGI came to 3.53 µM in the test on MDA-MB-435; 5.13 µM with M14 melanoma; 7.27 µM in the test with MOLT-4 leukemia; 7.77 µM in the test on T-47D breast; 3.17 µM with LOX IMVI melanoma; 4.09 µM in the test with KM12 colon. The TGI in the test on HL-60(TB) leukemia was found to be 4.54 µM; in the test with HT29 colon, 4.49 µM; in the test with SK-MEL-2 melanoma it was 4.29 µM; in the test on PC-3 prostate, 13.4 µM.

`O=C(/C=C/c1cc([N+](=O)[O-])ccc1Cl)c1ccccc1`: the GI50 with MDA-MB-435 was 14.2 µM; in the test on M14 melanoma, 10.2 µM; in the test with MOLT-4 leukemia it was 21.1 µM; in the test on T-47D breast it was 27.9 µM; in the test on LOX IMVI melanoma it was 2.6 µM; in the test on KM12 colon it was 1.8 µM. The GI50 is 32 µM in the test on HL-60(TB) leukemia, 3.36 µM with HT29 colon, 24.6 µM in the test with SK-MEL-2 melanoma and 24.5 µM in the test on PC-3 prostate. In addition, the TGI was 35.5 µM in the test on MDA-MB-435; 22.5 µM in the test with M14 melanoma; more than 100 µM in the test with MOLT-4 leukemia; more than 100 µM in the test on T-47D breast; 6.79 µM in the test with LOX IMVI melanoma; 3.59 µM with KM12 colon. For the same compound, the TGI stood at 96.4 µM in the test on HL-60(TB) leukemia, 19.4 µM in the test with HT29 colon, 72.3 µM in the test on SK-MEL-2 melanoma and 82.9 µM in the test on PC-3 prostate.

Take `COc1cc2c(cc1Nc1nc(Nc3ccsc3C(N)=O)c3cc[nH]c3n1)N(C(=O)CN(C)C)CCC2(C)C`: the GI50 is 0.299 µM with MDA-MB-435; 1.43 µM in the test with M14 melanoma; 1.9 µM in the test with MOLT-4 leukemia; 3.08 µM in the test with T-47D breast; 1.99 µM with LOX IMVI melanoma; 0.647 µM with KM12 colon. Besides, the GI50 in the test on HL-60(TB) leukemia is less than 0.0025 µM; with HT29 colon, less than 0.0025 µM; in the test with SK-MEL-2 melanoma it was 0.515 µM; in the test on PC-3 prostate, 2.55 µM. Further, the TGI with MDA-MB-435 was 2.49 µM; in the test with M14 melanoma, 5.68 µM; in the test with MOLT-4 leukemia, 8.91 µM; in the test with T-47D breast, 7.11 µM; with LOX IMVI melanoma, 6.08 µM; in the test on KM12 colon it was 2.61 µM. The TGI in the test with HL-60(TB) leukemia was 2.04 µM; in the test on HT29 colon, 2.53 µM; in the test on SK-MEL-2 melanoma, 3.63 µM; with PC-3 prostate, 7.01 µM.

Regarding `O=C(Nc1ccccc1)NS(=O)(=O)c1ccc(-n2nc3c(c2-c2ccc(Cl)cc2)Cc2ccccc2-3)cc1`, the GI50 is 16.8 µM in the test on MDA-MB-435; 34.5 µM with M14 melanoma; 7.05 µM with MOLT-4 leukemia; 49.9 µM in the test on T-47D breast; 15.3 µM with LOX IMVI melanoma; 16 µM in the test with KM12 colon. In addition, the GI50 in the test on HL-60(TB) leukemia was 13.4 µM; in the test on HT29 colon, 29.8 µM; in the test on SK-MEL-2 melanoma, 27.4 µM; in the test on PC-3 prostate, 16.7 µM. Also, the TGI is 52.7 µM in the test on MDA-MB-435; more than 100 µM in the test with M14 melanoma; 42.4 µM in the test with MOLT-4 leukemia; more than 100 µM with T-47D breast; 46.4 µM in the test with LOX IMVI melanoma; 55.1 µM in the test with KM12 colon. Also, the TGI in the test with HL-60(TB) leukemia was 35.6 µM; in the test on HT29 colon, more than 100 µM; in the test on SK-MEL-2 melanoma it was 91.8 µM; in the test on PC-3 prostate it was 47.8 µM.

In the case of `O=C(NP(=O)(N1CC1)N1CC1)c1cc(I)ccc1I`, the TGI with MDA-MB-435 was more than 100 µM; in the test on M14 melanoma it was more than 100 µM; in the test with MOLT-4 leukemia, more than 100 µM; with T-47D breast, more than 100 µM; in the test on LOX IMVI melanoma, 54.8 µM; in the test with KM12 colon, more than 100 µM. The TGI is more than 96.4 µM in the test with HL-60(TB) leukemia, more than 100 µM in the test on HT29 colon, more than 100 µM with SK-MEL-2 melanoma and more than 100 µM in the test with PC-3 prostate.

In the case of `Nc1nc(-c2ccccc2)nc(N)c1N=O`, the GI50 in the test with MDA-MB-435 was 4.57 µM; with M14 melanoma, 5.68 µM; in the test with MOLT-4 leukemia, 17.4 µM; with T-47D breast it was 4.63 µM; with LOX IMVI melanoma, 3.14 µM; in the test with KM12 colon it was 4.58 µM. The GI50 in the test on HL-60(TB) leukemia was 19.2 µM; in the test on HT29 colon, 2.88 µM; in the test with SK-MEL-2 melanoma, 19.5 µM; with PC-3 prostate it was 18.6 µM. Moreover, the TGI with MDA-MB-435 was 51.9 µM; in the test with M14 melanoma it was 19.5 µM; in the test with MOLT-4 leukemia, more than 100 µM; with T-47D breast, 23.1 µM; in the test on LOX IMVI melanoma, 13 µM; with KM12 colon, 16.9 µM. Further, the TGI with HL-60(TB) leukemia was found to be 88.9 µM; with HT29 colon it was 10.3 µM; in the test on SK-MEL-2 melanoma it was 41.6 µM; in the test on PC-3 prostate, 66.3 µM.

As to `COc1cc(O)c(C(=O)/C=C/c2ccc(O)cc2)c(O)c1[C@@H]1C[C@H](CCc2ccc(O)cc2)O[C@H](c2ccc(O)cc2)C1`, the GI50 is 3.89 µM in the test with MDA-MB-435; 3.48 µM in the test on M14 melanoma; 1.95 µM in the test on MOLT-4 leukemia; 3.12 µM in the test with T-47D breast; 2.93 µM in the test on LOX IMVI melanoma; 2.51 µM with KM12 colon. The GI50 is 2.02 µM in the test on HL-60(TB) leukemia, 3.66 µM in the test with HT29 colon, 3.62 µM in the test on SK-MEL-2 melanoma and 3.37 µM in the test on PC-3 prostate. The TGI with MDA-MB-435 turned out to be 14 µM; in the test with M14 melanoma it was 12.2 µM; with MOLT-4 leukemia it was 5.43 µM; in the test with T-47D breast, 17.5 µM; in the test with LOX IMVI melanoma, 8.37 µM; with KM12 colon, 6.64 µM. The TGI amounted to 3.91 µM in the test on HL-60(TB) leukemia, 11.2 µM in the test on HT29 colon, 17.5 µM with SK-MEL-2 melanoma and 12.5 µM in the test with PC-3 prostate.
